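96-well plates; 48 h exposure; 5 concentrations. Endpoints by linear interpolation between flanking doses. Not reached: highest tested concentration assigned. Here, GI50 denotes the concentration required for 50% inhibition of growth.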 Calls of active or inactive are those of the source. Rule as the data show it: active = GI50 up to about 1.1 µM and inactive = higher. Residues, ends and D or L forms follow the SMILES beside them. *: point of attachment. Boc = CC(C)(C)OC(=O)*
Legend:
Experiment in all cases: DTP human tumour cell line panel, 48 h
ACHN = tested on: ACHN
SF-268 = tested on: SF-268
IGROV-1 = tested on: IGROV-1
OVCAR-4 = tested on: OVCAR-4
HCC 2998 = tested on: HCC 2998
NCI-H23 = tested on: NCI-H23
SK-MEL-28 = tested on: SK-MEL-28
SK-MEL-5 = tested on: SK-MEL-5
NCI-H460 = tested on: NCI-H460
SF-295 = tested on: SF-295
K562 = tested on: K562
DU-145 = tested on: DU-145
KM12 = tested on: KM12
HOP-62 = tested on: HOP-62
SK-MEL-2 = tested on: SK-MEL-2
RXF 393 = tested on: RXF 393

Measured: GI50

COc1ccc(C(=O)/C=C2\Nc3cccnc3N\C2=C/C(=O)c2ccc(OC)cc2)cc1
inactive: ACHN 17.7 µM | SF-268 7.8 µM | IGROV-1 5.11 µM | OVCAR-4 2.67 µM | HCC 2998 23.9 µM | NCI-H23 13.5 µM | SK-MEL-28 16.9 µM | SK-MEL-5 25.1 µM | NCI-H460 9.18 µM | SF-295 16.9 µM | K562 57.9 µM | DU-145 19.9 µM | KM12 23.4 µM | HOP-62 4.94 µM | SK-MEL-2 23.7 µM

NNC(=O)CC(=O)Nc1ccc(C(=O)O)cc1
inactive: ACHN > 100 µM | SF-268 > 100 µM | RXF 393 > 100 µM | IGROV-1 > 100 µM | OVCAR-4 > 100 µM | NCI-H23 > 100 µM | SK-MEL-5 > 100 µM | NCI-H460 > 100 µM | SF-295 > 100 µM | K562 > 100 µM | DU-145 > 100 µM | KM12 > 100 µM | HOP-62 > 100 µM | SK-MEL-2 > 100 µM

COC(=O)/C=C/c1cnc2c(c1)oc(=O)n2C
inactive: ACHN > 100 µM | SF-268 > 100 µM | IGROV-1 > 100 µM | OVCAR-4 > 100 µM | HCC 2998 > 100 µM | NCI-H23 > 100 µM | SK-MEL-28 > 100 µM | SK-MEL-5 > 100 µM | NCI-H460 > 100 µM | SF-295 > 100 µM | K562 > 100 µM | DU-145 > 100 µM | KM12 > 100 µM | HOP-62 > 100 µM | SK-MEL-2 > 100 µM

c1ccc(-c2ccc(/N=N/N3CCCC3)cc2)cc1
inactive: ACHN > 100 µM | SF-268 > 100 µM | RXF 393 > 100 µM | IGROV-1 > 100 µM | OVCAR-4 > 100 µM | NCI-H23 > 100 µM | SK-MEL-5 > 100 µM | NCI-H460 > 100 µM | SF-295 > 100 µM | K562 > 100 µM | DU-145 > 100 µM | KM12 > 100 µM | HOP-62 > 100 µM | SK-MEL-2 > 100 µM

COC(=O)C(Cc1c[nH]c2ccccc12)NC(=O)C(Cc1c[nH]c2ccccc12)NC(=O)C(Cc1c[nH]c2ccccc12)NC(=O)C(Cc1c[nH]c2ccccc12)NC(=O)OC(C)(C)C (stereo not drawn) (Boc-WWWW-OMe; configuration not given here)
inactive: ACHN 57.5 µM | SF-268 28.2 µM | IGROV-1 35.3 µM | OVCAR-4 48.5 µM | HCC 2998 20.5 µM | NCI-H23 25.1 µM | SK-MEL-28 18.2 µM | SK-MEL-5 34.5 µM | NCI-H460 24.9 µM | K562 4.8 µM | DU-145 43.2 µM | HOP-62 25.6 µM

COC(=O)CN(CC(=O)NCCNC(=O)OC(C)(C)C)C1CCCCC1N(CC(=O)OC)CC(=O)OC (stereo not drawn)
inactive: ACHN > 100 µM | SF-268 > 100 µM | IGROV-1 > 100 µM | HCC 2998 > 100 µM | NCI-H23 > 100 µM | SK-MEL-28 > 100 µM | SK-MEL-5 > 100 µM | NCI-H460 > 100 µM | SF-295 > 100 µM | K562 > 100 µM | DU-145 > 100 µM | KM12 > 100 µM | HOP-62 > 100 µM | SK-MEL-2 > 100 µM

CC(O)c1c2c(cc3c1CC1(C3)Cc3cc4c(c(C(C)O)c3C1)CCC4)CCC2 (stereo not drawn)
inactive: ACHN 11.2 µM | RXF 393 14.9 µM | IGROV-1 20.3 µM | OVCAR-4 2.86 µM | HCC 2998 17.3 µM | NCI-H23 15.5 µM | SK-MEL-5 13 µM | SF-295 21 µM | K562 9.59 µM | KM12 21.8 µM | HOP-62 20.7 µM | SK-MEL-2 26.9 µM

COc1cc(OC)nc(-n2c(N)c(C#N)c3ccc([N+](=O)[O-])cc3c2=O)n1
inactive: ACHN > 100 µM | SF-268 > 100 µM | IGROV-1 79.3 µM | OVCAR-4 > 100 µM | HCC 2998 > 100 µM | NCI-H23 > 100 µM | SK-MEL-28 > 100 µM | SK-MEL-5 > 100 µM | NCI-H460 > 100 µM | SF-295 > 100 µM | DU-145 > 100 µM | KM12 > 100 µM | HOP-62 > 100 µM | SK-MEL-2 > 100 µM

CCOc1ccc(N/C(=C(/C(Cl)=C(/Cl)N2CCCCC2)[N+](=O)[O-])n2nnc3ccccc32)cc1
inactive: ACHN 16.2 µM | SF-268 17.4 µM | HCC 2998 21 µM | NCI-H23 15.3 µM | SK-MEL-28 18.5 µM | SK-MEL-5 15.6 µM | NCI-H460 22.2 µM | SF-295 22.4 µM | K562 17.4 µM | DU-145 19.2 µM | KM12 14.2 µM | HOP-62 21.4 µM | SK-MEL-2 16.7 µM

O=C(Cn1c(=O)oc2ccc(C(=O)c3ccccc3Cl)cc21)c1ccc([N+](=O)[O-])cc1
inactive: ACHN 32.7 µM | SF-268 24.8 µM | IGROV-1 23.6 µM | OVCAR-4 10.9 µM | HCC 2998 17.9 µM | NCI-H23 25.4 µM | SK-MEL-28 37.8 µM | SK-MEL-5 16.3 µM | NCI-H460 18.4 µM | SF-295 21.8 µM | K562 14.9 µM | DU-145 42 µM | KM12 20.1 µM | HOP-62 25.1 µM | SK-MEL-2 20.4 µM

Source: ChEMBL document CHEMBL1201862, “PubChem BioAssay data set” (2004)
